How the values were obtained:
[1] = tested on: F. nucleatum subsp. nucleatum ATCC 23726 (FNN23); experiment: Determination of bactericidal effect by CFU spot assay; assay type: cell-based, Fusobacterium nucleatum subsp. nucleatum ATCC 23726; conditions: 10 µM, 1 × 10^5 CFU/mL in MHB, spotting on BHI agar plates, up to 96 h; three replicates
Protocol: To investigate the bactericidal effects of PNAs an o.n. culture of FNN23 grown in ColB was diluted 1:50 in fresh ColB and grown to OD600 0.5. This culture was then diluted 1:2,500 to 1 × 10^5 CFU/mL in MHB, and 190 µL of the culture was dispensed into a transparent 96-well plate (Nunc, Thermo Fischer Scientific) together with 10 µL of respective 20× PNA stock or water and incubated at 37°C with 237 cpm shaking every 20 min. At the respective time points, 100 µL was taken out of the well, a 1:10 serial dilution series was prepared with 900 µL anoxic 1× PBS, and 5 µL of each dilution was spotted on BHI plates for CFU determination. Plates were incubated for 3 days at 37°C before taking out the plates of the anaerobic chamber for CFU counting.

[2] = tested on: F. nucleatum subsp. nucleatum ATCC 25586 (FNN25); experiment: Growth inhibition assay; assay type: cell-based, Fusobacterium nucleatum subsp. nucleatum ATCC 25586; conditions: 10 µM, MHB, 1 × 10^5 CFU/mL input, three replicates
Text: (§1) The following fusobacterial strains were used in this study: Fusobacterium nucleatum subsp. nucleatum ATCC 23726 (FNN23) acquired from the American Type Culture Collection (ATCC), F. nucleatum subsp. nucleatum ATCC 25586 (FNN25), F. nucleatum subsp. vincentii ATCC 49256 (FNV), and F. nucleatum subsp. polymorphum ATCC 10953 (FNP) acquired from the German Collection of Microorganisms and Cell Culture (DSMZ), F. nucleatum subsp. animalis 7_1 (FNA) and F. periodonticum 2_1_31 (FPE) both received as a kind gift from E. Allen-Vercoe (University of Guelph, Canada). All strains were routinely grown at 37°C in 80:10:10 (N2:H2:CO2) anaerobic conditions on 2% agar supplemented BHI plates (BHI, 1% [wt:vol] dried yeast extract, 1% [vol:vol] 50% sterile-filtered glucose solution, 5 µg/mL of hemin; 1% [vol:vol] fetal bovine serum) from frozen 20% glycerol stocks kept at −80°C. For liquid growth, the strains were cultured in Columbia broth (ColB; BD Difco). Precultures were prepared 24 h before inoculating the working culture at a 1:50 dilution in fresh ColB until OD600 0.5 was reached. Cultures were then diluted in non-cation adjusted Mueller-Hinton Broth (MHB, BD Difco) to the desired CFU/mL number. P. gingivalis (DSM 20709) was purchased from DSMZ and grown at 37°C in anaerobic conditions as mentioned above on 2% agar supplemented BHI+ plates (BHI, 1% [wt:vol] dried yeast extract, 1% [vol:vol] 50% sterile filtered glucose solution, 5 µg/ml of hemin; 10% [vol:vol] fetal bovine serum; and 1 µg/mL vitamin K3) for 4 days. […]
(§2) To determine the MIC value, broth microdilutions were performed according to the standard protocol with some modifications ([119]). […] Bacterial growth was monitored by measuring OD600 every 20 min with constant shaking in a plate reader (Biotek) under the normal atmospheric environment or positioned in the anaerobic chamber with double orbital shaking every 20 min prior to each measurement with 237 cpm at 37°C for 120 h.

[3] = tested on: F. nucleatum subsp. vincentii ATCC 49256 (FNV); experiment: Growth inhibition assay; assay type: cell-based, Fusobacterium nucleatum subsp. vincentii ATCC 49256; conditions: 10 µM, MHB, 1 × 10^5 CFU/mL input, three replicates
Text: The following fusobacterial strains were used in this study: Fusobacterium nucleatum subsp. nucleatum ATCC 23726 (FNN23) acquired from the American Type Culture Collection (ATCC), F. nucleatum subsp. nucleatum ATCC 25586 (FNN25), F. nucleatum subsp. vincentii ATCC 49256 (FNV), and F. nucleatum subsp. polymorphum ATCC 10953 (FNP) acquired from the German Collection of Microorganisms and Cell Culture (DSMZ), F. nucleatum subsp. animalis 7_1 (FNA) and F. periodonticum 2_1_31 (FPE) both received as a kind gift from E. Allen-Vercoe (University of Guelph, Canada). All strains were routinely grown at 37°C in 80:10:10 (N2:H2:CO2) anaerobic conditions on 2% agar supplemented BHI plates (BHI, 1% [wt:vol] dried yeast extract, 1% [vol:vol] 50% sterile-filtered glucose solution, 5 µg/mL of hemin; 1% [vol:vol] fetal bovine serum) from frozen 20% glycerol stocks kept at −80°C. For liquid growth, the strains were cultured in Columbia broth (ColB; BD Difco). […]
as §2

[4] = tested on: F. nucleatum subsp. polymorphum ATCC 10953 (FNP); experiment: Growth inhibition assay; assay type: cell-based, Fusobacterium nucleatum subsp. polymorphum ATCC 10953; conditions: 10 µM, MHB, 1 × 10^5 CFU/mL input, three replicates
Text: as §1, §2

[5] = tested on: F. periodonticum 2_1_31 (FPE); experiment: Growth inhibition assay; assay type: cell-based, Fusobacterium periodonticum 2_1_31; conditions: 10 µM, MHB, 1 × 10^5 CFU/mL input, three replicates
Text: as §1, §2

[6] = tested on: E. coli K12 MG1655; experiment: Growth inhibition assay; assay type: cell-based, Escherichia coli K12; conditions: 10 µM, MHB, 1 × 10^5 CFU/mL input, aerobic, 24 h
Protocol: (§3) Aerobic bacterial culture was conducted with E. coli K12 MG1655 (provided by D. Lee), E. coli Nissle 1917, and S. enterica serovar Typhimurium SL1344 (provided by D. Bumann, Biocenter Basel, Switzerland). The strains were streaked on lysogeny broth plates, incubated o.n. at 37°C and cultured in non-cation-adjusted MHB with aeration at 37°C and 220 rpm constant shaking.
(§4) To determine the MIC value, broth microdilutions were performed according to the standard protocol with some modifications ([119]). An overnight bacterial culture was diluted in a fresh ColB medium and grown to OD600 0.5 (mid-exponential phase). Fusobacteria were then diluted 1:2,500 or 1:250 in fresh MHB to obtain 1 × 10^5 CFU/mL or 1 × 10^6 CFU/mL as indicated. To determine the growth inhibition of P. gingivalis, an o.n. culture grown in BHI+ was diluted 1:1,500 in MHB to obtain 1 × 10^5 CFU/mL. E. coli K12, E. coli Nissle 1917, and S. enterica o.n. cultures grown in MHB were diluted 1:1,800 in fresh MHB to obtain 1 × 10^5 CFU/mL. […] Bacterial growth was monitored by measuring OD600 every 20 min with constant shaking in a plate reader (Biotek) under the normal atmospheric environment or positioned in the anaerobic chamber with double orbital shaking every 20 min prior to each measurement with 237 cpm at 37°C for 120 h.

[7] = tested on: E. coli Nissle 1917; experiment: Growth inhibition assay; assay type: cell-based, Escherichia coli Nissle 1917; conditions: 10 µM, MHB, 1 × 10^5 CFU/mL input, aerobic, 24 h
Protocol: as §3, §4

Substance	Bactericidal effect (viable cells, CFU) on FNN23 [1]	Growth inhibition of FNN25 [2]	Growth inhibition of FNV [3]	Growth inhibition of FNP [4]	Growth inhibition of FPE [5]	Growth inhibition of E. coli K12 [6]	Growth inhibition of E. coli Nissle 1917 [7]
RXRRXRRXRRXRXB [PNAscr]	no bactericidal effect	growth retardation compared with the water control	growth retardation compared with the water control	growth retardation compared with the water control	growth retardation compared with the water control	no growth inhibition	no growth inhibition
(RXR)4XB-GACATAATTGT [FUS79, non-targeting (RXR)4XB-PNA 11-mer control, (RXR)4XB-…]	no visible CFUs detected on the agar plate after 96 h	inhibited the growth	inhibited the growth of all strains, except FNV	inhibited the growth	inhibited the growth	no growth inhibition	no growth inhibition

From publication PMC12153356, “An antisense oligomer conjugate with unpredicted bactericidal activity against Fusobacterium nucleatum” (mBio, 2025)
